Laboratory results taken from patent US6440987B1, “Antipruritic” (Toray Industries, Inc., priority 1996, dated 2002).

Assays:
mouse vas deferens = test: Assay of opioid activity by mouse vas deferens assay (electrically evoked contraction); settings: for Ke (nM) NTI (10 nM): NTI as δ antagonist; for IC50: inhibition of electrically evoked contraction, absence of antagonist; for Ke (nM) Naloxone (30 nM): naloxone as μ antagonist; for Ke (nM) nor-BNI (10 nM): nor-BNI as κ antagonist
Experimental: Assay of opioid activity by mouse vas deferens assay
Male ddY mice were used for the experiment. The vas deferens specimen removed from the animal was suspended in a Magnus tube filled with Krebes-Henseleit solution (NaCl […]; KCl 5.9 mM; CaCl2 2.5 mM; NaH2PO4 1.2 mM; NaHCO3 15.3 mM; and glucose 11.5 mM) kept at 37° C., and gassed with a mixture of 5% carbon dioxide and 95% oxygen. Electrical stimulation was delivered at a rate of 0.1 Hz with 1.0 ms pulses through ring-shaped platinum electrodes placed at upper and lower levels in a Magnus tube. Tissue contractions were recorded via an isometric transducer on a polygraph.
(§1) test drug was cumulatively added until it inhibited over 50% the contraction of specimen evoked by the electrical stimulation, in the presence or absence of naloxone as a μ antagonist, nor-BNI as a κ antagonist, or NTI as a δ antagonist and IC50s were calculated for respective experimental conditions. From the difference in drug efficacy in the presence and absence of the antagonist, Ke values were calculated on the basis of following equations.
(§2) Ke=[Concentration of antagonist added]/(Dose ratio−1)
IC50 ratio=IC50 in the presence of antagonist/IC50 in the absence of antagonist

guinea pig ileum = test: Assay of opioid activity by guinea pig ileum assay (electrically evoked contraction of longitudinal muscle strip); settings: for IC50: Cavia porcellus, inhibition of electrically evoked contraction, absence of antagonist; for Ke (nM) Naloxone (100 nM): naloxone as μ antagonist; for Ke (nM) nor-BNI (5 nM): nor-BNI as κ antagonist
Experimental: Assay of opioid activity by Guinea pig ileum assay.
Male Hartley guinea pigs were used. The guinea pig was killed with a blow, and the ileum excised; the lumen of ileum was washed with a nutritious fluid; and only a piece of longitudinal muscle was stripped. This longitudinal muscle strip was suspended in a Magnus tube filled with Krebes-Henseleit solution (NaCl 135 mM; KCl 4.8 mM; CaCl2 3.4 mM; KH2PO4 1.2 mM; NaHCO3 8.3 mM; MgSO4, 2.5 mM; and glucose 11 mM) kept at 37° C., and gassed with a mixture of 5% carbon dioxide and 95% oxygen. Electrical stimulation was delivered at a rate of 0.1 Hz with 0.5 ms pulses through ring-shaped platinum electrodes placed at upper and lower levels in a Magnus tube. Tissue contractions were recorded via an isometric transducer on a polygraph.
as §1, with “The test drug” for “test drug”, “μ antagonist, or nor-BNI as” for “μ antagonist, nor-BNI as”, “κ antagonist, and IC50s” for “κ antagonist, or NTI as a δ antagonist and IC50s”
as §2
Dose ratio=IC50 in the presence of antagonist/IC50 in the absence of antagonist

[1] = system: itching due to atopic dermatitis; test: Topical application to skin lesions of a patient with atopic dermatitis, intensity of itching; format: in vivo, human
Experimental: The drug solution was applied on five spots with a volume of about 50 μl per 10 cm^2, which was equivalent to a topical dose of 0.2 μg/cm^2. As a comparison, indomethacin cream (having a drug concentration of 7.5 mg/g) was applied at a dose of 75 μg/cm2 in the same manner.

[2] = system: itching of erupted lesions of urticaria; test: Topical application to erupted lesions of urticaria, intensity of itching; format: in vivo, human; set-up: key to Intensity of itching five minutes after the treatment: itching whose intensity was evaluated as moderate (ranked as “++”); completely eradicated five minutes after the treatment (ranked as “−”); settings: male adult
Experimental: An opioid compound selectively acting on a κ receptor, (−)-17-(cyclopropylmethyl)-3,14β-dihydroxy-4,5α-epoxy-6β-[N-methyl-trans-3-(3-furyl)acrylamido]morphinan hyrochloride 7, [drawing 52]
was dissolved in physiological saline, to give an aqueous solution with a concentration of 40 μg/ml. This aqueous solution was topically applied to three erupted lesions of urticaria, on the lower limb of an adult at a dose of 0.2 μg/cm^2.

[3] = system: scratching behavior induced by Compound 48/80; set-up: species or system ddY mice; settings: mouse, in vivo, sc
[4] = topical, Compound 7 0.2 μg/cm^2, indomethacin cream 75 μg/cm2, prior to application +++

Row | SMILES | melting point | Ke (nM) NTI (10 nM) (mouse vas deferens) | IC50 (mouse vas deferens) | Ke (nM) Naloxone (30 nM) (mouse vas deferens) | Ke (nM) nor-BNI (10 nM) (mouse vas deferens) | IC50 (guinea pig ileum) | Ke (nM) Naloxone (100 nM) (guinea pig ileum) | Ke (nM) nor-BNI (5 nM) (guinea pig ileum) | Inhibition (%) of scratching behavior [3] | also measured
1 | CN(C(=O)/C=C/c1ccoc1)[C@@H]1CC[C@@]2(O)[C@H]3Cc4ccc(O)c5c4[C@@]2(CC[N+]3(C)CC2CC2)[C@H]1O5.[I-] (stereo partly drawn) [Compound 1, 17-cyclopropylmethyl-3,14β-dihydroxy-4,5α-epoxy-17-methyl-6β-(N-methyl-trans-3-(3-furyl)acrylamido)morphinanium iodide] | 202.4 to 207.9 °C (dec.) | 11.23 nM | 4.42 nM | 14.18 nM | 0.17 nM | 1.94 nM | 16.67 nM | 0.03 nM |  | 
2 | COc1cccc(/C=C/C(=O)N(C)[C@@H]2CC[C@@]3(O)[C@H]4Cc5ccc(O)c6c5[C@@]3(CC[N+]4(C)CC3CC3)[C@H]2O6)c1.[I-] (stereo partly drawn) [Compound 2, 17-cyclopropylmethyl-3,14β-dihydroxy-4,5α-epoxy-17-methyl-6β-(N-methyl-3-methoxycinnamamido)morphinanium.iodide] |  | 25 nM | 5.9 nM | 100 nM | 0.45 nM | 6.71 nM | 98.2 nM | 0.54 nM |  | 
3 | CN(C(=O)/C=C/c1ccoc1)[C@@H]1CC[C@@]2(O)[C@H]3Cc4ccc(O)c5c4[C@@]2(CC[N+]3([O-])CC2CC2)[C@H]1O5 (stereo partly drawn) [Compound 3, 17-cyclopropylmethyl-4,5α-epoxy-3,14β-dihydroxy-6β-[N-methyl-trans-3-(3-furyl)acrylamido]morphinan-N-oxide] | 238 to 239.8 °C (dec.) |  | 2.14 nM | 30.48 nM | 0.040 nM | 1.06 nM |  | 0.02 nM |  | 
4 | COc1cccc(/C=C/C(=O)N(C)[C@@H]2CC[C@@]3(O)[C@H]4Cc5ccc(O)c6c5[C@@]3(CC[N+]4([O-])CC3CC3)[C@H]2O6)c1 (stereo partly drawn) [Compound 4, 17-cyclopropylmethyl-4,5α-epoxy-3,14β-dihydroxy-6β-(N-methyl-3-methoxycinnamamido)morphinan-N-oxide] | 234 to 236.8 °C (dec.) | 11 nM | 1.8 nM | 50 nM | 0.67 nM | 4.09 nM | 28.7 nM | 0.09 nM |  | 
5 | CN(C(=O)C#Cc1ccc(C(F)(F)F)cc1)[C@@H]1CC[C@@]2(O)[C@H]3Cc4ccc(O)c5c4[C@@]2(CC[N+]3([O-])CC2CC2)[C@H]1O5 (stereo partly drawn) [Compound 5, 17-cyclopropylmethyl-4,5α-epoxy-3,14β-dihydroxy-6β-[N-methyl-3-(4-trifluoromethylphenyl)propyolamido]morphinan-N-oxide] | 205 to 208 °C (dec.) | 5.0 nM | 0.59 nM | 5.9 nM | 0.33 nM | 1.55 nM | 29.5 nM | 0.19 nM |  | 
6 | Cc1cccc(C#CC(=O)N(C)[C@@H]2CC[C@@]3(O)[C@H]4Cc5ccc(O)c6c5[C@@]3(CC[N+]4([O-])CC3CC3)[C@H]2O6)c1 (stereo partly drawn) [Compound 6, 17-cyclopropylmethyl-4,5α-epoxy-3,14β-dihydroxy-6β-[N-methyl-3-(3-methylphenyl)propyolamido]morphinan-N-oxide] | 192 to 202 °C (dec.) | 20 nM | 4.6 nM |  | 0.26 nM | 11.3 nM | 75.1 nM | 0.89 nM |  | 
7 | CN(C(=O)/C=C/c1ccoc1)[C@@H]1CC[C@@]2(O)[C@H]3Cc4ccc(O)c5c4[C@@]2(CCN3CC2CC2)[C@H]1O5.Cl [Compound 7, (−)-17-(cyclopropylmethyl)-3,14β-dihydroxy-4,5α-epoxy-6β-[N-methyl-trans-3-(3-furyl)acrylamido]morphinan hyrochloride] |  |  |  |  |  |  |  |  |  | Duration of no itching state ([1]; topical 0.2 μg/cm^2): at least three; Relief from itching (in words) ([1]; topical, Compound 7 0.2 μg/cm^2 (in five minutes), indomethacin cream 75 μg/cm2): eradicated itching completely; Intensity of itching 5 minutes after application [1, 4]: −; Intensity of itching 10 minutes after application [1, 4]: −; Intensity of itching 3 hours after application [1, 4]: −; Intensity of itching five minutes after the treatment ([2]; urticaria lesions on lower limb, topical 0.2 μg/cm^2 (40 μg/ml in saline), before treatment “++”): −; Duration of no itching state ([2]; urticaria, topical 0.2 μg/cm^2): about five
8 | CN(C(=O)NCc1ccccc1)[C@H]1CC[C@@]2(O)[C@H]3Cc4ccc(O)c5c4[C@@]2(CCN3CC2CC2)[C@H]1O5.O=C(O)C(O)C(O)C(=O)O [Compound 12, 17-cyclopropylmethyl-3,14β-dihydroxy-4,5α-epoxy-6α-(N-methyl-N-benzylureido)morphinan tartrate] |  |  |  |  |  |  |  |  | 39% | 
9 | CN(C(=O)Cc1ccc(Cl)c(Cl)c1)C(CN1CCCC1)c1ccccc1.Cl (stereo not drawn) [Compound 20] |  |  |  |  |  |  |  |  | 62% | 
10 | Cl.O=C(C1CCc2cc(Cl)c(Cl)cc21)N1CCSCC1CN1CCCC1 (stereo not drawn) [Compound 21, 3-(1-pyrrolidinylmethyl)-4-[5,6-dichloro-1-indancarbonyl]-tetrahydro-1,4-thiazine hydrochloride] |  |  |  |  |  |  |  |  | 23% | 
